Test results taken from patent US5191079A, “Quinolinecarboxylic acid derivatives” (priority 1990, dated 1993).

Assay: Acute toxicity, Experiment 6
Format: in vivo, F344/DuCrj male and female rats
Details: oral, 1000 and 2000 mg/kg, one week
Description: 9,1-(Methylimino)methano-7-fluoro-8-(2-methoxymethylmorpholino)-5-oxo-5H-thiazolo[3,2-a]quinoline-4-carboxylic acid (compound of Example 20) [the compound (E) of the present invention] was suspended in 1% aqueous gum arabic to prepare a suspension in concentration of 100 mg/ml. The suspension was orally administered to F344/DuCrj male and female rats (5 weeks age, weighing 110 to 115 g in male, 91 to 95 g in female, 3 rats in each group), which had been fasted for 5 hours, at a rate of 1000 and 2000 mg/kg body weight of the test compound (E).

COCC1CN(c2c(F)cc3c(=O)c(C(=O)O)c4scc5n4c3c2N(C)C5)CCO1 (stereo not shown) [Compound (E), 9,1-(Methylimino)methano-7-fluoro-8-(2-methoxymethylmorpholino)-5-oxo-5H-thiazolo[3,2-a]quinoline-4-carboxylic acid]
death of rats: no death of rats was observed
